# In US7396837B2, “Antitumoral analogs of lamellarins” (Pharma Mar, S.A.U., priority 2002, dated 2008):
# Legend:
# [1] = target: T1, human topoisomerase I (Homo sapiens, UniProt P11387); test: Topoisomerase I DNA relaxation assay (supercoiled plasmid DNA); format: biochemical
# T1 sequence (P11387 1-765): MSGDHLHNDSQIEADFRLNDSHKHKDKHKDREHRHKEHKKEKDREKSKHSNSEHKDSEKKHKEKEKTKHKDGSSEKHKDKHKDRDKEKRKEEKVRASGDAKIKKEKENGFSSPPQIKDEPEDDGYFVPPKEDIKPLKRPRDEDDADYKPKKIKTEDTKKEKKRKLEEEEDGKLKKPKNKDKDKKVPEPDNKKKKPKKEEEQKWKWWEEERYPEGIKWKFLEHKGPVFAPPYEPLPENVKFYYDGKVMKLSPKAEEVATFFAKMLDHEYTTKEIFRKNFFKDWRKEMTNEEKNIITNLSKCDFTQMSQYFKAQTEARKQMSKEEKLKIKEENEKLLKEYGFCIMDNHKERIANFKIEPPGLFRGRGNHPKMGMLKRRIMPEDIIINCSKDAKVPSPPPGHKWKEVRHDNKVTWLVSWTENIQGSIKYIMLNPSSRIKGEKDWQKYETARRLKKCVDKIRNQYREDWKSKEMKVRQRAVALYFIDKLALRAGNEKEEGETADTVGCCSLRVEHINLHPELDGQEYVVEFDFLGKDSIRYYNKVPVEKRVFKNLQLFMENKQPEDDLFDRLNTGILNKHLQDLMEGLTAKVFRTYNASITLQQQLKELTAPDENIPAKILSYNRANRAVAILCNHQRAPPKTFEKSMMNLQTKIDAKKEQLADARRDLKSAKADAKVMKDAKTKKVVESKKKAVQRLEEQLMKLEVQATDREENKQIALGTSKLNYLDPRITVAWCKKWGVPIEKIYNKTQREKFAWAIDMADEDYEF
# Method: (§1) Two assays, based on DNA relaxation and DNA cleavage (Bailly, C. DNA relaxation and cleavage assays to study topoisomerase I inhibitors. Methods Enzymol. 2001, 340, 610-623) were used evaluate the effects of the lamellarin analogs on the catalytic activity of human topoisomerase I.
# In the first assay, a supercoiled plasmid DNA was relaxed with topoisomerase I in the absence or presence of the test compounds, each tested at 1 μM. DNA relaxation products were then resolved by gel electrophoresis on agarose gels containing ethidium bromide to stain the DNA.
# [2] = target: T1, human topoisomerase I; test: Topoisomerase I cleavage of radiolabeled 117-bp DNA fragment; format: biochemical; conditions: 117-bp DNA restriction fragment 3' end-labeled, sequencing-type polyacrylamide gels
# Text: as §1
# A second assay, based on the cleavage of a radiolabeled DNA substrate by topoisomerase I, was used to confirm that the cationic lamellarin derivatives do effectively function as topoisomerase I poisons. A 117-bp DNA restriction fragment uniquely end-labeled at the 3′ end was subjected to cleavage by topoisomerase I in the presence of the different compounds and the resulting DNA cleavage products were resolved on sequencing-type polyacrylamide gels. The advantage of this assay is to detect the cleavage sites and to locate their positions with nucleotide resolution, providing thus information on the site selectivity of cleavage.
# [3] = tested on: IGROV-ET; test: SRB colorimetric cell growth inhibition assay, IGROV-ET (ET-743 resistant); format: cell-based; conditions: Homo sapiens
# Summary of the method: (§2)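 After uninterrupted treatment, cultures are fixed and stained with sulforhodamine B, and absorbance reflects cell growth and viability. Each value represents the average of triplicate wells with SD.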
# [4] = tested on: DU-145; test: SRB colorimetric cell growth inhibition assay, DU-145; format: cell-based
# Summary of the method: as §2
# [5] = tested on: SK-BR-3; test: SRB colorimetric cell growth inhibition assay, SK-BR-3; format: cell-based
# Summary of the method: as §2
# [6] = tested on: LNCaP; test: SRB colorimetric cell growth inhibition assay, LNCaP; format: cell-based; conditions: Homo sapiens, LNCaP
# Summary of the method: as §2
# [7] = tested on: SKOV-3; test: SRB colorimetric cell growth inhibition assay, SKOV-3; format: cell-based; conditions: Homo sapiens
# Summary of the method: (§3)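 Sulforhodamine B colorimetric assay of cell growth and viability, mean ± SD of triplicate wells. Parameters derived: GI (growth inhibition), TGI (total growth inhibition, cytostatic) and LC (cell killing, cytotoxic).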
# [8] = tested on: HT-29; test: SRB colorimetric cell growth inhibition assay, HT-29; format: cell-based
# Summary of the method: as §2
# [9] = tested on: LoVo; test: SRB colorimetric cell growth inhibition assay, LoVo; format: cell-based; conditions: Homo sapiens, LoVo
# Summary of the method: as §2
# [10] = tested on: PANC-1; test: SRB colorimetric cell growth inhibition assay, PANC-1; format: cell-based
# Summary of the method: as §2
# [11] = SRB colorimetric cell growth inhibition assay, H-MEC-1; format: cell-based; conditions: human
# Summary of the method: as §3
# [12] = tested on: H-MEC-1; test: as above; format: cell-based; conditions: Homo sapiens, HMEC-1, H-MEC-1
# Summary of the method: as §3
# [13] = tested on: SK-MEL-28; test: SRB colorimetric cell growth inhibition assay, SK-MEL-28; format: cell-based
# Summary of the method: as §2
# [14] = tested on: K-562; test: SRB colorimetric cell growth inhibition assay, K-562; format: cell-based; conditions: Homo sapiens
# Summary of the method: as §2
# [15] = tested on: IGROV; test: SRB colorimetric cell growth inhibition assay, IGROV; format: cell-based
# Summary of the method: as §2
# [16] = tested on: LoVo-Dox; test: SRB colorimetric cell growth inhibition assay, LoVo-Dox (MDR); format: cell-based; conditions: Homo sapiens
# Summary of the method: as §2
# [17] = tested on: A-549; test: SRB colorimetric cell growth inhibition assay, A-549; format: cell-based
# Summary of the method: as §2
smiles,measurement,setting,value
COc1cc(-c2c3c4cc(OC)c(OC(=O)[C@@H](N)Cc5ccccc5)cc4oc(=O)c3n3ccc4cc(OC(=O)[C@@H](N)Cc5ccccc5)c(OC)cc4c23)ccc1OC(=O)[C@@H](N)Cc1ccccc1 [Compound 25],potency at inhibiting topoisomerase I relative to the other amino acid derivatives,[1]; DNA relaxation assay,significantly less potent than the other amino acid derivatives
same,stimulation of DNA cleavage by topoisomerase I / inhibition of topoisomerase I (nicked DNA band) in DNA relaxation assay,"[1]; supercoiled plasmid DNA, each compound tested at 1 μM, agarose gel with ethidium bromide",marked inhibition of topoisomerase I
same,topoisomerase I-mediated DNA cleavage sites / cleavage profile,[2],Cleavage profiles identical to that of 3
COc1cc(-c2c3c4cc(OC)c(OC(=O)[C@@H](N)C(C)C)cc4oc(=O)c3n3ccc4c(OC(=O)[C@@H](N)C(C)C)c(OC)c(OC)cc4c23)ccc1OC(=O)[C@@H](N)C(C)C [Compound 35],GI50,"[3]; IGROV-ET, GI=growth inhibition, read-out: GI50 IGROV-ET",192 nM
same,IC (TGI),"[3]; IGROV-ET, total growth inhibition (cytostatic effect), read-out: TGI IGROV-ET",855 nM
same,CC50,"[3]; read-out: LC50 IGROV-ET, IGROV-ET, cell killing (cytotoxic effect)",5450 nM
same,TGI DU-145,"[4]; DU-145, total growth inhibition (cytostatic effect)",8.81E−08 Molar
same,GI50,"[4]; Homo sapiens, DU-145, DU-145, GI=growth inhibition, read-out: GI50 DU-145",32.1 nM
same,CC50,[4]; human,576 nM
same,IC (TGI),"[5]; Homo sapiens, SK-BR-3, SK-BR-3, total growth inhibition (cytostatic effect), read-out: TGI SK-BR-3",689 nM
same,CC50,"[5]; Homo sapiens, SK-BR-3, read-out: LC50 SK-BR-3, SK-BR-3, cell killing (cytotoxic effect)",4030 nM
same,GI50,"[5]; SK-BR-3, GI=growth inhibition, read-out: GI50 SK-BR-3",228 nM
same,GI50,"[6]; LN-caP, GI=growth inhibition, read-out: GI50 LN-caP",88.1 nM
same,IC (TGI),"[6]; LN-caP, total growth inhibition (cytostatic effect), read-out: TGI LN-caP",468 nM
same,CC50,"[6]; read-out: LC50 LN-caP, LN-caP, cell killing (cytotoxic effect)",2220 nM
same,GI50,"[7]; SK-OV-3, SKOV-3, GI=growth inhibition, read-out: GI50 SKOV-3",113 nM
same,LC50 (concentration causing 50% net cell killing),"[7]; SK-OV-3, read-out: LC50 SKOV-3",3830 nM
same,IC (TGI),"[7]; SK-OV-3, SKOV-3, total growth inhibition (cytostatic effect), read-out: TGI SKOV-3",932 nM
same,GI50,"[8]; HT-29, GI=growth inhibition, read-out: GI50 HT-29",1180 nM
same,IC (TGI),"[8]; Homo sapiens, HT-29, HT-29, TGI=total growth inhibition (cytostatic effect), read-out: TGI HT-29",2440 nM
same,CC50,"[8]; Homo sapiens, HT-29, read-out: LC50 HT-29, HT-29, LC=cell killing (cytotoxic effect)",5060 nM
same,CC50,"[9]; read-out: LC50 LOVO, LOVO, LC=cell killing (cytotoxic effect)",2600 nM
same,GI50,"[9]; GI=growth inhibition, read-out: GI50 LOVO",207 nM
same,IC (TGI),"[9]; TGI=total growth inhibition (cytostatic effect), read-out: TGI LOVO",705 nM
same,IC (TGI),"[10]; Homo sapiens, PANC-1, PANC-1, TGI=total growth inhibition (cytostatic effect), read-out: TGI PANC-1",1210 nM
same,CC50,"[10]; Homo sapiens, PANC-1, read-out: LC50 PANC-1, PANC-1, LC=cell killing (cytotoxic effect)",3670 nM
same,GI50,"[10]; PANC-1, GI=growth inhibition, read-out: GI50 PANC-1",178 nM
same,LC50 (concentration giving 50% net cell killing),[11],82.6 nM
same,GI50,"[12]; GI=growth inhibition, read-out: GI50 H-MEC-1",19.7 nM
same,IC (TGI),"[12]; total growth inhibition (cytostatic effect), read-out: TGI H-MEC-1",40.3 nM
same,IC (TGI),"[13]; Homo sapiens, SK-MEL-28, MEL-28, total growth inhibition (cytostatic effect), read-out: TGI MEL-28",915 nM
same,GI50,"[13]; MEL-28, GI=growth inhibition, read-out: GI50 MEL-28",54.6 nM
same,CC50,[13]; human,2770 nM
same,GI50,"[14]; K562, K-562, GI=growth inhibition, read-out: GI50 K-562",80.8 nM
same,IC (TGI),"[14]; K562, K-562, TGI=total growth inhibition (cytostatic effect), read-out: TGI K-562",975 nM
same,CC50,"[14]; K562, read-out: LC50 K-562, K-562, LC=cell killing (cytotoxic effect)",4820 nM
same,GI50,"[15]; Homo sapiens, IGROV, GI=growth inhibition, read-out: GI50 IGROV",152 nM
same,IC (TGI),"[15]; Homo sapiens, IGROV, total growth inhibition (cytostatic effect), read-out: TGI IGROV",907 nM
same,CC50,[15]; human,4050 nM
same,GI50,"[16]; LOVO-DOX, GI=growth inhibition, read-out: GI50 LOVO-DOX",217 nM
same,IC (TGI),"[16]; LOVO-DOX, TGI=total growth inhibition (cytostatic effect), read-out: TGI LOVO-DOX",737 nM
same,CC50,"[16]; read-out: LC50 LOVO-DOX, LOVO-DOX, LC=cell killing (cytotoxic effect)",2800 nM
same,GI50,"[17]; A-549, GI=growth inhibition, read-out: GI50 A-549",52.4 nM
same,IC (TGI),"[17]; Homo sapiens, A549, A-549, TGI=total growth inhibition (cytostatic effect), read-out: TGI A-549",259 nM
same,CC50,"[17]; Homo sapiens, A549, read-out: LC50 A-549, A-549, LC=cell killing (cytotoxic effect)",6090 nM
